Assay results taken from US20060286237A1, “Use of divanillin as a flavouring agent” (priority 2003, published 2006).

Key:
[1] = as described in JP 07-179853 A2; cited from earlier work
[2] = Sensory investigation of the taste impression of divanillin
[3] = Taste threshold value determination

SMILES: COc1cc(C=O)cc(-c2cc(C=O)cc(OC)c2O)c1O [divanillin, 6,6′-dihydroxy-5,5′-dimethoxy-[1,1′-biphenyl]-3,3′-dicarboxaldehyde]
- odour and taste description [1]: odourless and tasteless
- taste impression at higher concentration ([2]; higher concentration values preferred according to JP 07-179853 A2 (0.001 to 5 wt. %)): diminishes in favour of a vanilla-like individual taste
- taste impression ([2]; own investigations): pleasant, adherent and rich taste impression of creaminess, milk fattiness, butteriness and sweetness
- taste threshold value [3]: below 1 ppm
